# Reference: ChEMBL document CHEMBL5137054, “Xyloketal B Reverses Nutritional Hepatic Steatosis, Steatohepatitis, and Liver Fibrosis through Activation of the PPARα/PGC1α Signaling Pathway” (J Nat Prod, 2022)
# Active and inactive are the calls of the source. No cut-off for these calls is given here.
# Columns and labels:
# [1] = tested on: Mus musculus; assay: Reduction in hepatic steatosis in HFD-induced C57BL/6J mouse model of NAFL assessed as reduction in HFD-induced body weight gain at 20 to 40 mg/kg/day, ip administered from week 7 to week 12; type: functional, organism-based; settings: dose 20-40 mg/kg/day, time 6.0 weeks
# [2] = tested on: Mus musculus; assay: Reduction in hepatic steatosis in HFD-induced C57BL/6J mouse model of NAFL assessed as reduction in HFD-induced relative liver weight at 20 to 40 mg/kg/day, ip administered from week 7 to week 12; type: functional, organism-based; settings: dose 20-40 mg/kg/day, time 6.0 weeks
# [3] = tested on: Mus musculus; assay: Reduction in hepatic steatosis in HFD-induced C57BL/6J mouse model of NAFL assessed as reduction in size of lipid droplets in hepatocytes at 20 to 40 mg/kg/day, ip administered from week 7 to week 12 by H&E staining analysis; type: functional, organism-based; settings: dose 20-40 mg/kg/day, time 6.0 weeks
# [4] = tested on: Mus musculus; assay: Reduction in hepatic steatosis in HFD-induced C57BL/6J mouse model of NAFL assessed as reduction in serum AST level at 20 to 40 mg/kg/day, ip administered from week 7 to week 12; type: functional, organism-based; settings: dose 20-40 mg/kg/day, time 6.0 weeks
# [5] = Toxicity in C57BL/6J mouse assessed as effect on serum AST level at 40 mg/kg, ip; type: organism-based; settings: in vivo
# [6] = Toxicity in C57BL/6J mouse assessed as effect on serum glucose level at 40 mg/kg, ip; type: organism-based; settings: in vivo
# [7] = Toxicity in C57BL/6J mouse assessed as effect on serum triglyceride level at 40 mg/kg, ip; type: organism-based; settings: in vivo
# [8] = tested on: Mus musculus; assay: Upregulation of long-chain specific acyl-CoA dehydrogenase gene transcriptional level in HFD-induced C57BL/6J mouse model of NAFL at 20 to 40 mg/kg/day, ip administered from week 7 to week 12 by qRT-PCR analysis; type: functional, organism-based; settings: dose 20-40 mg/kg/day, time 6.0 weeks
# [9] = tested on: Mus musculus; assay: Upregulation of Medium-chain specific acyl-CoA dehydrogenase gene transcriptional level in HFD-induced C57BL/6J mouse model of NAFL at 20 to 40 mg/kg/day, ip administered from week 7 to week 12 by qRT-PCR analysis; type: functional, organism-based; settings: dose 20-40 mg/kg/day, time 6.0 weeks
# [10] = tested on: Mus musculus; assay: Upregulation of peroxisomal bifunctional enzyme gene transcriptional level in HFD-induced C57BL/6J mouse model of NAFL at 20 to 40 mg/kg/day, ip administered from week 7 to week 12 by qRT-PCR analysis; type: functional, organism-based; settings: dose 20-40 mg/kg/day, time 6.0 weeks
# [11] = tested on: Mus musculus; assay: Upregulation of Cyp4a10 gene transcriptional level in HFD-induced C57BL/6J mouse model of NAFL at 20 to 40 mg/kg/day, ip administered from week 7 to week 12 by qRT-PCR analysis; type: functional, organism-based; settings: dose 20-40 mg/kg/day, time 6.0 weeks
# [12] = tested on: Mus musculus; assay: Upregulation of Cpt1a gene transcriptional level in HFD-induced C57BL/6J mouse model of NAFL at 20 to 40 mg/kg/day, ip administered from week 7 to week 12 by qRT-PCR analysis; type: functional, organism-based; settings: dose 20-40 mg/kg/day, time 6.0 weeks
# [13] = tested on: Mus musculus; assay: Upregulation of Cpt1b gene transcriptional level in HFD-induced C57BL/6J mouse model of NAFL at 20 to 40 mg/kg/day, ip administered from week 7 to week 12 by qRT-PCR analysis; type: functional, organism-based; settings: dose 20-40 mg/kg/day, time 6.0 weeks
# [14] = tested on: Mus musculus; assay: Upregulation of Cpt1c gene transcriptional level in HFD-induced C57BL/6J mouse model of NAFL at 20 to 40 mg/kg/day, ip administered from week 7 to week 12 by qRT-PCR analysis; type: functional, organism-based; settings: dose 20-40 mg/kg/day, time 6.0 weeks
# [15] = tested on: Mus musculus; assay: Upregulation of peroxisomal bifunctional enzyme expression in liver of HFD-induced C57BL/6J mouse model of NAFL administered intraperitoneally from week 7 to week 12 by immunoblotting analysis; type: functional; settings: dose 20-40 mg/kg/day, route ip, time 6.0 weeks, DDE = dose-dependent effect
# [16] = tested on: Mus musculus; assay: Upregulation of cytochrome P450-4A10 enzyme expression in liver of HFD-induced C57BL/6J mouse model of NAFL administered intraperitoneally from week 7 to week 12 by immunoblotting analysis; type: functional; settings: dose 20-40 mg/kg/day, route ip, time 6.0 weeks, DDE = dose-dependent effect
# [17] = tested on: Mus musculus; assay: Upregulation of ACAA1 enzyme expression in liver of HFD-induced C57BL/6J mouse model of NAFL administered intraperitoneally from week 7 to week 12 by immunoblotting analysis; type: functional; settings: dose 20-40 mg/kg/day, route ip, time 6.0 weeks, DDE = dose-dependent effect
# [18] = tested on: Mus musculus; assay: Upregulation of peroxisomal bifunctional enzyme expression in liver of HFD-induced C57BL/6J mouse model of NAFL at 15 mg/kg/day, ip administered from week 7 to week 12 by immunoblotting analysis; type: functional, organism-based; settings: time 6.0 weeks
# [19] = tested on: Mus musculus; assay: Upregulation of peroxisomal acyl-coenzyme A oxidase-1 enzyme expression in liver of HFD-induced C57BL/6J mouse model of NAFL at 15 mg/kg/day, ip administered from week 7 to week 12 by immunoblotting analysis; type: functional, organism-based; settings: time 6.0 weeks
# [20] = tested on: Mus musculus; assay: Anti-inflammatory activity against MCD-induced C57BL/6J mouse model of nonalcoholic steatohepatitis assessed as reduction in necroinflammation foci in liver at 20 to 40 mg/kg/day, ip administered from week 3 to week 4 by H&E staining based light microscopic analysis; type: functional, organism-based; settings: dose 20-40 mg/kg/day, time 2.0 weeks
# [21] = tested on: Mus musculus; assay: Anti-inflammatory activity against MCD-induced C57BL/6J mouse model of nonalcoholic steatohepatitis assessed as downregulation of IL1beta expression in liver at 20 to 40 mg/kg/day, ip administered from week 3 to week 4 by immunoblotting analysis; type: functional, organism-based; settings: dose 20-40 mg/kg/day, time 2.0 weeks
# [22] = tested on: Mus musculus; assay: Anti-inflammatory activity against MCD-induced C57BL/6J mouse model of nonalcoholic steatohepatitis assessed as downregulation of interleukin 6 expression in liver at 20 to 40 mg/kg/day, ip administered from week 3 to week 4 by immunoblotting analysis analysis; type: functional, organism-based; settings: dose 20-40 mg/kg/day, time 2.0 weeks
# [23] = tested on: Mus musculus; assay: Anti-inflammatory activity against MCD-induced C57BL/6J mouse model of nonalcoholic steatohepatitis assessed as downregulation of TNFalpha expression in liver at 20 to 40 mg/kg/day, ip administered from week 3 to week 4 by immunoblotting analysis; type: functional, organism-based; settings: dose 20-40 mg/kg/day, time 2.0 weeks
# [24] = tested on: Mus musculus; assay: Anti-inflammatory activity against MCD-induced C57BL/6J mouse model of nonalcoholic steatohepatitis assessed as attenuation of VCAM1 expression in liver at 20 to 40 mg/kg/day, ip administered from week 3 to week 4 by immunoblotting analysis; type: functional, organism-based; settings: dose 20-40 mg/kg/day, time 2.0 weeks
# [25] = tested on: Mus musculus; assay: Anti-inflammatory activity against MCD-induced C57BL/6J mouse model of nonalcoholic steatohepatitis assessed as attenuation of ICAM1 expression in liver at 20 to 40 mg/kg/day, ip administered from week 3 to week 4 by immunoblotting analysis; type: functional, organism-based; settings: dose 20-40 mg/kg/day, time 2.0 weeks
# [26] = tested on: Mus musculus; assay: Antifibrotic activity against MCD-induced C57BL/6J mouse model of liver fibrosis assessed as reduction in number of collagenous fibers in liver at 20 to 40 mg/kg, ip administered from week 3 to week 6 by masson's trichrome staining based light microscopic analysis; type: functional, organism-based; settings: dose 20-40 mg/kg, time 4.0 weeks
# [27] = tested on: Mus musculus; assay: Antifibrotic activity against MCD-induced C57BL/6J mouse model of liver fibrosis assessed as reduction in TIMP1 level in liver administered intraperitoneally from week 3 to week 6 by immunoblotting analysis; type: functional, organism-based; settings: dose 20-40 mg/kg, route ip, time 4.0 weeks, DDE = dose-dependent effect
# [28] = tested on: Mus musculus; assay: Antifibrotic activity against MCD-induced C57BL/6J mouse model of liver fibrosis assessed as reduction in TGFbeta level in liver administered intraperitoneally from week 3 to week 6 by immunoblotting analysis; type: functional, organism-based; settings: dose 20-40 mg/kg, route ip, time 4.0 weeks, DDE = dose-dependent effect
smiles,measurement,setting,value
C[C@H]1CO[C@]2(C)Oc3cc(O)c4c(c3C[C@H]12)O[C@@]1(C)OC[C@H](C)[C@H]1C4,Activity,[1],Active
same,Activity,[2],Active
same,Activity,[3],Active
same,Activity,[4],Active
same,Activity,[5],Non-Toxic
same,Activity,[6],Non-Toxic
same,Activity,[7],Non-Toxic
same,Activity,[8],Active
same,Activity,[9],Active
same,Activity,[10],Active
same,Activity,[11],Active
same,Activity,[12],Active
same,Activity,[13],Active
same,Activity,[14],Active
same,Activity,[15],Dde
same,Activity,[16],Dde
same,Activity,[17],Dde
same,Activity,[18],Active
same,Activity,[19],Active
same,Activity,[20],Active
same,Activity,[21],Active
same,Activity,[22],Active
same,Activity,[23],Active
same,Activity,[24],Active
same,Activity,[25],Active
same,Activity,[26],Active
same,Activity,[27],Dde
same,Activity,[28],Dde
